Tests used:
waaL15 bacteria = conditions: 1 μg/ml vancomycin-BODIPY-FL, 10 min, wild-type background with intact OM
Protocol: (§1) Overnight cultures were sub-cultured at 1:100 into fresh LB broth and grown for 1.5 h. A1 ml aliquot was taken, pelleted and was twice washed with 1 ml M63 medium. Cells were resuspended in 0.1 ml of M63 broth containing 1 μg/ml of vancomycin-BODIPY-FL (LifeTechnologies, V-34850). Cells were incubated at room temperature for 10 min and then washed twice with 1 ml M63 broth. Cells were then resuspended in 0.03 ml of M63 broth, and approximately […] was spotted onto an M63-agarose pad. Cells were immediately visualized on a Nikon Eclipse 90i microscope with a Nikon Plan Apo 1.4/100× Oil Ph3 phase objective.
(§2) The ability of purified LPS* to bind vancomycin in vitro was assessed. LPS* was immobilized on a carboxymethylated dextran (CM3) chip and surface plasmon resonance was used to monitor interactions with differing concentrations of vancomycin. […] To test this hypothesis, weperformed live cell microscopy using a fluorescent vancomycin-BODIPY. A wild-type strain background with an intact OM that prevents the influx of vancomycin was used, to avoid labeling intracellular sites of PG synthesis.

waaL+ cells = conditions: 1 μg/ml vancomycin-BODIPY-FL, 10 min, wild-type background with intact OM
Protocol: as §1, §2

[1] = Surface plasmon resonance, vancomycin over immobilized purified LPS*; design: species or system Escherichia coli; conditions: SPR, Biacore X100, 25° C., LPS* immobilized on CM3 chip, equilibrium signal fit; read-out: Kd, specific binding of vancomycin to LPS*
Protocol: as §2

[2] = Surface plasmon resonance, vancomycin over reference channel (LPS from waaL+); type: binding, Escherichia coli; conditions: SPR, 25° C., different concentrations of vancomycin
Protocol: Purified LPS (0.5 mg/ml) from strains MG1210 or MG1211 were extruded in 20 mMTris/HCl pH 8, 150 mM NaCl and immobilized on poly-L-lysine coated CM3 Biacore chips on the active and reference channel, respectively (Malojcić et al., 2014). All experiments were performed using a Biacore X100 instrument at 25° C. at a flow rate of 10 μl/min with 20 mMTris/HCl pH 8, 150 mM NaCl buffer. Different concentrations of vancomycin were injected for 400 s and dissociation was recorded for another 500 s to return to baseline. […] The equilibrium signal in the difference channel was fitted to f=Bmax*abs(x)/(Kd+abs(x)) with R^2=0.88.

Molecule	fluorescent labeling of cells (waaL15 bacteria)	fluorescent labeling of cells (waaL+ cells)	Kd [1]	binding to the reference channel [2]
vancomycin-BODIPY-FL	circumferential labeling	could not be fluorescently labeled		
CN[C@H](CC(C)C)C(=O)N[C@H]1C(=O)N[C@@H](CC(N)=O)C(=O)N[C@H]2C(=O)N[C@H]3C(=O)N[C@H](C(=O)N[C@H](C(=O)O)c4cc(O)cc(O)c4-c4cc3ccc4O)[C@H](O)c3ccc(c(Cl)c3)Oc3cc2cc(c3O[C@@H]2O[C@H](CO)[C@@H](O)[C@H](O)[C@H]2O[C@H]2C[C@](C)(N)[C@H](O)[C@H](C)O2)Oc2ccc(cc2Cl)[C@H]1O [vancomycin]			480 ± 80 nM	No binding

— patent US9677052B2, “Modified lipopolysaccharide glycoform and method of use” (THE TRUSTEES OF PRINCETON UNIVERSITY, priority 2014, dated 2017)
